Source: US20240252488A1 (KOREA RESEARCH INSTITUTE OF CHEMICAL TECHNOLOGY, priority 2020, published 2024)
pKd: −log10 of the molar value.

Legend:
FADD−/− Jurkat cells = experiment: Necroptosis inhibition assay, TNF-α-induced necroptosis (CellTiter-Glo 2.0); format: cell-based, human; conditions: TNF-α 15 ng/mL; for Necroptosis inhibition assay (Rescue %) 1 μM: compound 1 μM; for Necroptosis inhibition assay (Rescue %) 10 μM: compound 10 μM
Procedure, shortened: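 Luminescent ATP measurement gave viability, from which cytotoxicity and necroptosis inhibition rate were derived. Before that, cells (5.0×10^5 cells/mL) saw compound at 0.1, 1 or 10 μM final for 30 minutes at room temperature, then TNF-α (15 ng/mL final) for 20 to 24 hours at 37° C.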

MLKL [1] = target: T1, MLKL (Homo sapiens, UniProt Q8NB16); experiment: Measurement of binding affinity with MLKL receptor (competitive binding assay, Kd); set-up: made in house; host or cells: HEK 293 cell line (T7 phage in E. coli BL21-derived host is also described)
T1 sequence (Q8NB16 1-471): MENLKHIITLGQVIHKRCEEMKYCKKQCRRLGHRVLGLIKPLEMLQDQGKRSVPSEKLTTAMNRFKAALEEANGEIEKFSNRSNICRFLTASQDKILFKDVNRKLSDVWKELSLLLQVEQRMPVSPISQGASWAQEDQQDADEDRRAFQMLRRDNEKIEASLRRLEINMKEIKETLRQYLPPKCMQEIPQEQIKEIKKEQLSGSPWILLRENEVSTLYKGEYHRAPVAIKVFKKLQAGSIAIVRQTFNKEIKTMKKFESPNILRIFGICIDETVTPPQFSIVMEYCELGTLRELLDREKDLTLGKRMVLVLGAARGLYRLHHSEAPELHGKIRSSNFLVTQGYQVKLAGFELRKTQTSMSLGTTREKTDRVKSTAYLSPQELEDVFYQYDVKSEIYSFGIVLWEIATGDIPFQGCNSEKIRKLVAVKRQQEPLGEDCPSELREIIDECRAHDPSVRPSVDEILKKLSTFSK
Procedure, shortened: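 HEK 293-expressed, DNA-tagged MLKL; ligand beads blocked with biotin and SeaBlock/1% BSA/0.05% Tween 20/1 mM DTT buffer. Cpd from 111× DMSO stock, 0.9% DMSO final. Eluted kinase by qPCR → Kd.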

MLKL [2] = target: T1, MLKL; experiment: MLKL degradation assay in HepG2 cell line (western blot); format: cell-based; set-up: endogenous in cells; host or cells: HepG2 or HaCaT; conditions: cell line not given; for Degradation assay (Degradation %) 1 μM: compound 1 μM; for Degradation assay (Degradation %) 10 μM: compound 10 μM
Experimental: MLKL degradation ability was evaluated in the following method.
1 mL of Human liver cancer cell line (HepG2 cell line) or human skin cell line (HaCaT cell line) was equally distributed into each well at 2.0×10^5 cells/mL in a 12-well cell culture plate. On the next day, the medium was replaced with a medium made so that the final concentration of test compound was 1 or 10 μM (1 mL/well), and incubated in 5% CO2, at 37° C. for 20-24 hours (Thermo scientific, Forma steri-cycle).
For protein preparation after incubation, cells were washed with 1×TBST, and 60 μL of RIPA lysis buffer containing Halt™ Protease and Phosphatase Inhibitor Cocktail was dispensed into each well. After scraping the cells with a scraper, the cells were recovered, and the pallet was homogenized and reacted on ice for 30 minutes. After the cells were centrifuged at 13,000 rpm, 10 minutes, 4° C., the supernatant was transferred to a new E-tube. For protein quantification, after dispensing sample and BCA (0-4 mg/ml) in a 96 well plate, 100 μL of BCA was dispensed and reacted in a 37° C. incubator for 30 minutes. After measuring the absorbance (SpectraMax, M5e, 562 nm), the amount of the sample was adjusted with the same concentration of protein and 4× Laemmli sample buffer, DW, and reacted at 100° C. for 5 minutes.
After assembling the MP TGX Precast Gel in the Mini-PROTEAN Tetra Cell, the same protein (10-15 μg) was added in an 8-10 μL volume per well, 1×Tris-Glycine Buffer was added, and loading was performed. After loading was completed, transfer was performed using Pierce G2 Fast Blotter and Pierce 1-Step Transfer Buffer. After completion of the transfer, 10 ml of SuperBlock™ Blocking Buffer was dispensed and reacted at room temperature for 10 minutes. 5% BSA containing the primary antibody was dispensed and reacted over night at 4° C. The next day, washing was performed three times with 1×TBST at room temperature for 10 minutes. 5% BSA containing the secondary antibody was dispensed and reacted at room temperature for 1 hour. Washing was performed three times with 1×TBST at room temperature for 10 minutes. The amount of protein expression was measured using chemiluminescence (LuminoGraph, ATTO).

| SMILES | Necroptosis inhibition assay (Rescue %) 1 μM (FADD−/− Jurkat cells; FADD−/− Jurkat cells) | Necroptosis inhibition assay (Rescue %) 10 μM (FADD−/− Jurkat cells; FADD−/− Jurkat cells) | pKd (MLKL [1]) | Degradation assay (Degradation %) 1 μM (MLKL [2]) | Degradation assay (Degradation %) 10 μM (MLKL [2]) | Necroptosis inhibition assay (Rescue %) 1 μM (FADD−/− Jurkat cells) | Necroptosis inhibition assay (Rescue %) 10 μM (FADD−/− Jurkat cells) | Necroptosis inhibition assay (Rescue %) 1.1 μM (FADD−/− Jurkat cells; compound 1.1 µM) |
| --- | --- | --- | --- | --- | --- | --- | --- | --- |
| Nc1ncc(-c2cnn(C3CCN(C(=O)CCC4CCN(C(=O)COc5ccc6nnn(C7CCC(=O)NC7=O)c(=O)c6c5)CC4)CC3)c2)nc1C(=O)O[C@@H](C(=O)Nc1ccc(F)cc1)c1ccccc1 (stereo partly drawn) [TDH-437, (R)-2-((4-fluorophenyl)amino)-2-oxo-1-phenylethyl 3-amino-6-(1-(1-(3-(1-(2-((3-(2,6-dioxopiperidin-3-yl)-4-oxo-3,4-dihydrobenzo[d][1,2,3]triazin-6-yl)oxy)acetyl)piperidin-4-yl)propanoyl)piperidin-4-yl)-1H-pyrazol-4-yl)pyrazine-2-carboxylate] | 42.82% | 23.20% | 8.89 | 87.34% | 79.50% |  |  |  |
| Nc1ncc(-c2cnn(C3CCN(CC4CCN(C5=CC(=O)N(C6CCC(=O)NC6=O)C5=O)CC4)CC3)c2)nc1C(=O)O[C@@H](C(=O)Nc1ccc(F)cc1)c1ccccc1 (stereo partly drawn) [TDH-521, (R)-2-((4-fluorophenyl)amino)-2-oxo-1-phenylethyl 3-amino-6-(1-(1-((1-(1-(2,6-dioxopiperidin-3-yl)-2,5-dioxo-2,5-dihydro-1H-pyrrol-3-yl)piperidin-4-yl)methyl)piperidin-4-yl)-1H-pyrazol-4-yl)pyrazine-2-carboxylate] | 0.16% | 1.33% | 8.82 | 91.54% | 78.62% |  |  |  |
| Nc1ncc(-c2cnn(C3CCN(CCCN4CCN(C(=O)C5CN(C6=CC(=O)N(C7CCC(=O)NC7=O)C6=O)C5)CC4)CC3)c2)nc1C(=O)O[C@@H](C(=O)Nc1ccc(F)cc1)c1ccccc1 (stereo partly drawn) [TDH-532, (R)-2-((4-fluorophenyl)amino)-2-oxo-1-phenylethyl 3-amino-6-(1-(1-(3-(4-(1-(1-(2,6-dioxopiperidin-3-yl)-2,5-dioxo-2,5-dihydro-1H-pyrrol-3-yl)azetidine-3-carbonyl)piperazin-1-yl)propyl)piperidin-4-yl)-1H-pyrazol-4-yl)pyrazine-2-carboxylate] | 21.37% | 24.82% | 8.85 | 73.88% | 38.71% |  |  |  |
| Nc1ncc(-c2cnn(C3CCN(C(=O)COCCOCCNC(=O)C4CCN(c5ccc6c(c5)C(=O)N(C5CCC(=O)NC5=O)C6=O)CC4)CC3)c2)nc1C(=O)O[C@@H](C(=O)Nc1ccc(F)cc1)c1ccccc1 (stereo partly drawn) [TDH-195, (R)-2-((4-fluorophenyl)amino)-2-oxo-1-phenylethyl 3-amino-6-(1-(1-(2-(2-(2-(1-(2-(2,6-dioxopiperidin-3-yl)-1,3-dioxoisoindolin-5-yl)piperidine-4-carboxamido)ethoxy)ethoxy)acetyl)piperidin-4-yl)-1H-pyrazol-4-yl)pyrazine-2-carboxylate] |  |  | 8.16 | 63.85% | 29.78% | 80.66% | 39.24% |  |
| Nc1ncc(-c2cnn(C3CCN(CCOC4CCN(C(=O)C5CCN(c6ccc7c(c6)C(=O)N(C6CCC(=O)NC6=O)C7=O)CC5)CC4)CC3)c2)nc1C(=O)OC(C(=O)Nc1ccc(F)cc1)c1ccccc1 (stereo not shown) [TDH-248, 2-((4-fluorophenyl)amino)-2-oxo-1-phenylethyl 3-amino-6-(1-(1-(2-((1-(1-(2-(2,6-dioxopiperidin-3-yl)-1,3-dioxoisoindolin-5-yl)piperidine-4-carbonyl)piperidin-4-yl)oxy)ethyl)piperidin-4-yl)-1H-pyrazol-4-yl)pyrazine-2-carboxylate] |  |  | 8.07 | 47.44% | 14.59% | 72.38% | 51.46% |  |
| Nc1ncc(-c2cnn(C3CN(CC4CCN(C(=O)CNc5ccc6c(c5)C(=O)N(C5CCC(=O)NC5=O)C6=O)CC4)C3)c2)nc1C(=O)O[C@@H](C(=O)Nc1ccc(F)cc1)c1ccccc1 (stereo partly drawn) [TDH-360, (R)-2-((4-fluorophenyl)amino)-2-oxo-1-phenylethyl 3-amino-6-(1-(1-((1-((2-(2,6-dioxopiperidin-3-yl)-1,3-dioxoisoindolin-5-yl)glycyl)piperidin-4-yl)methyl)azetidin-3-yl)-1H-pyrazol-4-yl)pyrazine-2-carboxylate] |  |  | 8.48 | 87.25% | 73.06% |  | 38.05% | 55.49 (1.1µM) % |
| Nc1ncc(-c2cnn(C3CCN(C(=O)C4CCN(C(=O)COc5cccc6c5C(=O)N(C5CCC(=O)NC5=O)C6=O)CC4)CC3)c2)nc1C(=O)OC(C(=O)Nc1ccc(F)cc1)c1ccccc1 (stereo not shown) [TDH-277, 2-((4-fluorophenyl)amino)-2-oxo-1-phenylethyl 3-amino-6-(1-(1-(1-(2-((2-(2,6-dioxopiperidin-3-yl)-1,3-dioxoisoindolin-4-yl)oxy)acetyl)piperidine-4-carbonyl)piperidin-4-yl)-1H-pyrazol-4-yl)pyrazine-2-carboxylate] |  |  | 8.82 | 40.52% | 53.39% | 43.59% | 13.88% |  |
| Nc1ncc(-c2cnn(C3CCN(CCC4CCN(C(=O)C5CCN(c6ccc7c(c6)C(=O)N(C6CCC(=O)NC6=O)C7=O)CC5)CC4)CC3)c2)nc1C(=O)O[C@@H](C(=O)Nc1ccc(F)cc1)c1ccccc1 (stereo partly drawn) [TDH-197, (R)-2-((4-fluorophenyl)amino)-2-oxo-1-phenylethyl 3-amino-6-(1-(1-(2-(1-(1-(2-(2,6-dioxopiperidin-3-yl)-1,3-dioxoisoindolin-5-yl)piperidine-4-carbonyl)piperidin-4-yl)ethyl)piperidin-4-yl)-1H-pyrazol-4-yl)pyrazine-2-carboxylate] |  |  | 9.13 | 58.62% | 23.6% | 56.07% | 32.02% |  |
